The test system of assay [1] is Plasmodium falciparum. As to the kind of experiment: Antimalarial activity against chloroquine-susceptible Plasmodium falciparum 3D7 infected in human A+ RBC assessed as inhibition of [3H]hypoxanthine uptake after 48 hrs by scintillation counting. The format is functional, organism-based.
Assay [2] deals with Plasmodium falciparum. As to the kind of experiment: Antimalarial activity against chloroquine-resistant Plasmodium falciparum W2 infected in human A+ erythrocytes assessed as inhibition of [3H]hypoxanthine uptake after 48 hrs by scintillation counting. It counts as functional, organism-based.

Structures are written as SMILES.

Experimental findings from ChEMBL document CHEMBL1275341, “Synthesis and antimalarial activities of rhenium bioorganometallics based on the 4-aminoquinoline structure” (Bioorg Med Chem, 2010) are described below.

In general, IC50 refers to the midpoint of a concentration-inhibition curve. In the case of `Clc1ccc2c(NCCNCc3cccc4ccccc34)ccnc2c1`, the IC50 in the assay with Plasmodium falciparum [1] turned out to be 471 nM; in the assay with Plasmodium falciparum [2], 1200 nM.

Take `Clc1ccc2c(NCCNCc3c4ccccc4cc4ccccc34)ccnc2c1`: the half-maximal inhibitory concentration (IC50) in the assay on Plasmodium falciparum [1] was determined as 84 nM; with Plasmodium falciparum [2], 797 nM.

For `Clc1ccc2c(NCCNCc3ccc4ccccc4c3)ccnc2c1`, the IC50 turned out to be 48 nM in the assay with Plasmodium falciparum [1] and 820 nM in the assay on Plasmodium falciparum [2].
